{"source": "patent US11590117B2", "about": "“Treatment of a hematologic malignancy with 2-(4-chlorophenyl)-n-((2-(2,6-dioxopiperidin-3-yl)-1-oxoisoindolin-5-yl)methyl)-2,2-difluoroacetamide” (priority 2016, dated 2023)", "assay_type_in_all_cases": "cell-based, human", "key": {"CFU-E": {"system": "CFU-E", "assay": "Colony forming assay, bone marrow CD34+ cells in MethoCult", "procedure": "(§1) Experimental design: human bone marrow (BM) CD34+ cells were used to evaluate the potential for BM toxicity induced by Compound 1. In order to test the effects of Compound 1 on the functionality of hematopoietic progenitors, colony forming assays were done by seeding BM CD34+ cells on MethoCult medium. Cells were seeded directly in MethoCult with Compound 1 or cultured in liquid medium with Compound 1 for 2, 4, or 8 hours and then seeded in compound-free MethoCult to evaluate the effect of different exposure times. Early apoptosis induced by Compound 1 on HSC was analyzed by flow cytometry.\n(§2) Results. Colony forming units (CFU) of common granulocyte/erythrocyte/monocyte/megakaryocyte (CFU-GEMM), CFU of granulocyte/monocyte (CFU-GM), burst forming unit of erythrocytes (BFU-E), and CFU of erythrocytes (CFU-E) in cultures exposed to Compound 1 or DMSO were scored on STEMvision.\n(§3) Bone marrow CD34+ cells from normal donors were incubated with Compound 1 in MethoCult medium. Colony numbers for CFU-GM and BFU-E progenitors were counted using STEMVision automatic colony counting instrument and software and normalized to the colony number of the DMSO control. Results plotted as percentage of DMSO control vs concentration of Compound 1 were used to determine IC50 values. Data are shown as mean standard error of the mean of n=3 technical replicates. Donors were HD10, HD14, HD18, and HD19."}, "CFU-GEMM": {"system": "CFU-GEMM", "assay": "Colony forming assay, bone marrow CD34+ cells in MethoCult", "procedure": "as §1, §2, §3"}, "[1]": {"system": "HR-MDS, sAML and normal bone marrow progenitors", "assay": "SL/M2 stromal co-culture colony replating assay (cell self-renewal assay)", "settings": "1 nM and 10 nM; sAML and HR-MDS progenitors more than normal bone marrow progenitors", "procedure": "Compound 1 at the indicated concentrations was added at the initiation of co-culture, with DMSO as a vehicle control. Colonies were scored to determine the effect of Compound 1 on cell survival (FIG. 36A) and self-renewal (FIG. 36B). ***, p<0.001, AML vs normal bone marrow controls treated with 1 nM of compound 1 (one-way ANOVA). **, p=0.01, AML vs normal bone marrow controls treated with 10 nM of Compound 1 (one-way ANOVA). Error bars represent mean values SD.\nMethods. Mouse stromal cells SL/M2 stably expressing human interleukin-3 (IL-3), granulocyte colony stimulating factor (G-CSF) and stem cell factor (SCF) were cultured to confluency, followed by gamma-irradiation. Human CD34+ bone marrow cells isolated from 3 high-risk MDS patients (HR-MDS), 3 secondary AML patients arising from MDS (sAML) and 5 age-matched healthy donors were then cultured with inactivated SL/M2 cells for a week. Next, human progenitor cells were quantified by FACS and cells were plated in methylcellulose for colony forming assay (cell survival assay). After two weeks, 20-25 colonies were picked from each condition, resuspended and replated in fresh methylcellulose for 2nd round of colony forming assay (cell self-renewal assay)."}, "[2]": {"settings": "Donor HD10, 7.4 nM Compound 1, replicate counts"}, "[3]": {"settings": "Donor HD10, 22.2 nM Compound 1, replicate counts"}, "[4]": {"settings": "Donor HD10, 67 nM Compound 1, replicate counts"}, "[5]": {"settings": "Donor HD10, 200 nM Compound 1, replicate counts"}, "[6]": {"settings": "Donor HD10, 600 nM Compound 1, replicate counts"}, "[7]": {"settings": "Donor HD14, 7.4 nM Compound 1, replicate counts"}, "[8]": {"settings": "Donor HD14, 22.2 nM Compound 1, replicate counts"}, "[9]": {"settings": "Donor HD14, 67 nM Compound 1, replicate counts"}, "[10]": {"settings": "Donor HD14, 200 nM Compound 1, replicate counts"}, "[11]": {"settings": "Donor HD14, 600 nM Compound 1, replicate counts"}, "[12]": {"settings": "Donor HD18, 7.4 nM Compound 1, replicate counts"}, "[13]": {"settings": "Donor HD18, 22.2 nM Compound 1, replicate counts"}, "[14]": {"settings": "Donor HD18, 67 nM Compound 1, replicate counts"}, "[15]": {"settings": "Donor HD18, 200 nM Compound 1, replicate counts"}, "[16]": {"settings": "Donor HD18, 600 nM Compound 1, replicate counts"}, "[17]": {"settings": "Donor HD19, 7.4 nM Compound 1, replicate counts"}, "[18]": {"settings": "Donor HD19, 22.2 nM Compound 1, replicate counts"}, "[19]": {"settings": "Donor HD19, 67 nM Compound 1, replicate counts"}, "[20]": {"settings": "Donor HD19, 200 nM Compound 1, replicate counts"}, "[21]": {"settings": "Donor HD19, 600 nM Compound 1, replicate counts"}}, "note": "“And” between values parts separate entries of the source, which are not always exact repeats. Identical values can stand only once."}
{"smiles": "O=C1CCC(N2Cc3cc(CNC(=O)C(F)(F)c4ccc(Cl)cc4)ccc3C2=O)C(=O)N1", "note": "(centres unmarked) [Compound 1, 2-(4-chlorophenyl)-N-((2-(2,6-dioxopiperidin-3-yl)-1-oxoisoindolin-5-yl)methyl)-2,2-difluoroacetamide]", "values": [{"measurement": "Colony Number CFU-E", "setting": "CFU-E; [2]", "result": 2}, {"measurement": "Colony Number CFU-E", "setting": "CFU-E; [3]", "result": 0}, {"measurement": "Colony Number CFU-E", "setting": "CFU-E; [4]", "result": 0}, {"measurement": "Colony Number CFU-E", "setting": "CFU-E; [5]", "result": "1 and 3"}, {"measurement": "Colony Number CFU-E", "setting": "CFU-E; [6]", "result": 0}, {"measurement": "Colony Number CFU-E", "setting": "CFU-E; [7]", "result": "6 and 0"}, {"measurement": "Colony Number CFU-E", "setting": "CFU-E; [8]", "result": "7 and 0"}, {"measurement": "Colony Number CFU-E", "setting": "CFU-E; [9]", "result": 4}, {"measurement": "Colony Number CFU-E", "setting": "CFU-E; [10]", "result": "1 and 2"}, {"measurement": "Colony Number CFU-E", "setting": "CFU-E; [11]", "result": "2 and 0"}, {"measurement": "Colony Number CFU-E", "setting": "CFU-E; [12]", "result": "0 and 2"}, {"measurement": "Colony Number CFU-E", "setting": "CFU-E; [13]", "result": "7 and 1"}, {"measurement": "Colony Number CFU-E", "setting": "CFU-E; [14]", "result": "3 and 0"}, {"measurement": "Colony Number CFU-E", "setting": "CFU-E; [15]", "result": "3 and 2"}, {"measurement": "Colony Number CFU-E", "setting": "CFU-E; [16]", "result": 1}, {"measurement": "Colony Number CFU-E", "setting": "CFU-E; [17]", "result": "9 and 4"}, {"measurement": "Colony Number CFU-E", "setting": "CFU-E; [18]", "result": "4 and 5"}, {"measurement": "Colony Number CFU-E", "setting": "CFU-E; [19]", "result": "6 and 3"}, {"measurement": "Colony Number CFU-E", "setting": "CFU-E; [20]", "result": "3 and 1"}, {"measurement": "Colony Number CFU-E", "setting": "CFU-E; [21]", "result": 1}, {"measurement": "Colony Number CFU-GEMM", "setting": "CFU-GEMM; [2]", "result": "4 and 2"}, {"measurement": "Colony Number CFU-GEMM", "setting": "CFU-GEMM; [3]", "result": "2 and 0"}, {"measurement": "Colony Number CFU-GEMM", "setting": "CFU-GEMM; [4]", "result": "5 and 1"}, {"measurement": "Colony Number CFU-GEMM", "setting": "CFU-GEMM; [5]", "result": 0}, {"measurement": "Colony Number CFU-GEMM", "setting": "CFU-GEMM; [6]", "result": 0}, {"measurement": "Colony Number CFU-GEMM", "setting": "CFU-GEMM; [7]", "result": 0}, {"measurement": "Colony Number CFU-GEMM", "setting": "CFU-GEMM; [8]", "result": 0}, {"measurement": "Colony Number CFU-GEMM", "setting": "CFU-GEMM; [9]", "result": 0}, {"measurement": "Colony Number CFU-GEMM", "setting": "CFU-GEMM; [10]", "result": 0}, {"measurement": "Colony Number CFU-GEMM", "setting": "CFU-GEMM; [11]", "result": 0}, {"measurement": "Colony Number CFU-GEMM", "setting": "CFU-GEMM; [12]", "result": "2 and 4"}, {"measurement": "Colony Number CFU-GEMM", "setting": "CFU-GEMM; [13]", "result": 1}, {"measurement": "Colony Number CFU-GEMM", "setting": "CFU-GEMM; [14]", "result": 0}, {"measurement": "Colony Number CFU-GEMM", "setting": "CFU-GEMM; [15]", "result": 0}, {"measurement": "Colony Number CFU-GEMM", "setting": "CFU-GEMM; [16]", "result": 0}, {"measurement": "Colony Number CFU-GEMM", "setting": "CFU-GEMM; [17]", "result": 4}, {"measurement": "Colony Number CFU-GEMM", "setting": "CFU-GEMM; [18]", "result": "0 and 1"}, {"measurement": "Colony Number CFU-GEMM", "setting": "CFU-GEMM; [19]", "result": "0 and 1"}, {"measurement": "Colony Number CFU-GEMM", "setting": "CFU-GEMM; [20]", "result": 0}, {"measurement": "Colony Number CFU-GEMM", "setting": "CFU-GEMM; [21]", "result": 0}, {"measurement": "colony replating (self-renewal)", "setting": "[1]", "result": "significantly reduced the self-renewal"}]}
